In US8735584B2 (Merck Patent GmbH, priority 2008, dated 2014):
Each block holds one compound with its values, some of them ahead of it.

Columns and labels:
ABL = biological target: T1, ABL (Homo sapiens, UniProt P00519); experiment: Desktop Profiler kinase panel, ABL; assay type: biochemical; conditions: for inhibition at 10 µM: 10 micromolar concentration of the compound, read-out: Percent Inhibition ABL
T1 construct: purchased Caliper Life Sciences
Procedure: (§1) The Aurora assays described here are performed on two Caliper Life Sciences systems: the LC3000 and the Desktop Profiler. These provide data on enzyme activity via measurement of the relative amounts of phosphorylated or unphosphorylated fluorescently labelled substrate peptide at the end of an enzymatic reaction. These different states of peptide are resolved by applying a potential difference across the sample. The presence of the charged phosphate group on the product (as opposed to the substrate) causes a different peptide mobility between the two peptides. This is visualized by excitation of the fluorescent label on the substrate and product peptides and represented as peaks within the analysis software.
(§2) The Desktop Profiler utilizes the same principle as the LC3000 for calculating percentage conversion of a substrate to product. Caliper Life Sciences provides proprietary flash frozen pre-made 384 well plates containing selected kinases. Each column in the 384 well plate contains a particular selected kinase. A second plate, the ‘substrate plate’ contains a mix of fluorescently labeled peptide substrate and ATP. These are arranged in columns so that transfer for substrate plate to enzyme plate provides the correct enzyme with the correct substrate/ATP concentration. Compounds are added to a thawed enzyme plate in the desired format, in single concentrations. Reactions are initiated by transfer of the substrate/ATP mix from the substrate plate. The enzyme plate is incubated for 90 mins at 25 C. The reaction is stopped by addition of 70 ul of Stop Buffer (100 mM HEPES pH 7.5, 0.015% Brij-35, 10 mM EDTA (Sigma, E7889)).
(§3) Reading of the plate in the Profiler is identical to the LC3000, and the ratio between substrate and product peaks provides the activity of the enzyme in that well. This is best represented by a plate heat map which colors each well by percent inhibition as compared to positive and negative controls (no inhibitors and no ATP respectively).
(§4) In the following Tables 3a-4-b, which show the results of the desktop profiler measurements, “+” means 50-70% inhibition, “++” means 70-90% inhibition, and “+++” means >90% inhibition. The enzymes tested for profiling were ABL, AKT1, AKT2, AurA, CHK1, CHK2, CK1d, Erk1, Erk2, FYN, GSK3b, INSR, LCK, LYN, MAPKAPK2, MET, MSK1, p38a, PKA, PKCz, PKD2, PRAK, RSK1 and SRC.

AurA = biological target: T2, AurA (Homo sapiens, UniProt O14965); experiment: Desktop Profiler kinase panel, AurA; assay type: biochemical; conditions: for inhibition at 10 µM: 10 micromolar concentration of the compound, read-out: Percent Inhibition AurA
T2 construct: purchased Caliper Life Sciences
T2 sequence (O14965 1-403): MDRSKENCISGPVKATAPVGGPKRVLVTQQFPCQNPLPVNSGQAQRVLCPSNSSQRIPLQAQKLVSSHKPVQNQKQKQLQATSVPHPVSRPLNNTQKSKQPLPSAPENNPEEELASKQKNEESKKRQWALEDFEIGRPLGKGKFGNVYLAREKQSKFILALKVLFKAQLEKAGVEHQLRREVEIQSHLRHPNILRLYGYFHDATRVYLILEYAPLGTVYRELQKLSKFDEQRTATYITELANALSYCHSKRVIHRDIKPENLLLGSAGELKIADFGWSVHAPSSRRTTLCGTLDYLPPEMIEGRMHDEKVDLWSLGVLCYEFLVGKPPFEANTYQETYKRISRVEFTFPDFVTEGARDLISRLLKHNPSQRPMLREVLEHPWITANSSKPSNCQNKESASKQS
Procedure: as §1, §2, §3, §4

CHK2 = biological target: T3, CHK2 (Homo sapiens, UniProt O96017); experiment: Desktop Profiler kinase panel, CHK2; assay type: biochemical
T3 construct: purchased Caliper Life Sciences
T3 sequence (O96017 whole entry, species assumed): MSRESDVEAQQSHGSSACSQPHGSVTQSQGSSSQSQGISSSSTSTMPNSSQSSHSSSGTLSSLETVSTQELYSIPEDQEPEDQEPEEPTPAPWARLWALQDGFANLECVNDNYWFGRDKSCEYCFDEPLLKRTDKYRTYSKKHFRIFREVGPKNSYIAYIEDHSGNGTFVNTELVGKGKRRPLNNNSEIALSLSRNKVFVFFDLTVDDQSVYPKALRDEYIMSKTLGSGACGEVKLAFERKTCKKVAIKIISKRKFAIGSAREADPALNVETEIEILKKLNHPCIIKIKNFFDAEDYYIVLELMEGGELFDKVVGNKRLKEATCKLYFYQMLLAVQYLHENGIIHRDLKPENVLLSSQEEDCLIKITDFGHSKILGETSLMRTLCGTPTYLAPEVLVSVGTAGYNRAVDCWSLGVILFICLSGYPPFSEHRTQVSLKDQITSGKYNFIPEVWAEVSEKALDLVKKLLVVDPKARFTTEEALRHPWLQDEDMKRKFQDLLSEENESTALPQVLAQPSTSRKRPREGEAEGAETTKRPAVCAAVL
Procedure: as §1, §2, §3, §4

FYN = biological target: T4, FYN (Homo sapiens, UniProt P06241); experiment: Desktop Profiler kinase panel, FYN; assay type: biochemical; conditions: for inhibition at 10 µM: 10 micromolar concentration of the compound, read-out: Percent Inhibition FYN
T4 construct: purchased Caliper Life Sciences
T4 sequence (P06241 whole entry, species assumed): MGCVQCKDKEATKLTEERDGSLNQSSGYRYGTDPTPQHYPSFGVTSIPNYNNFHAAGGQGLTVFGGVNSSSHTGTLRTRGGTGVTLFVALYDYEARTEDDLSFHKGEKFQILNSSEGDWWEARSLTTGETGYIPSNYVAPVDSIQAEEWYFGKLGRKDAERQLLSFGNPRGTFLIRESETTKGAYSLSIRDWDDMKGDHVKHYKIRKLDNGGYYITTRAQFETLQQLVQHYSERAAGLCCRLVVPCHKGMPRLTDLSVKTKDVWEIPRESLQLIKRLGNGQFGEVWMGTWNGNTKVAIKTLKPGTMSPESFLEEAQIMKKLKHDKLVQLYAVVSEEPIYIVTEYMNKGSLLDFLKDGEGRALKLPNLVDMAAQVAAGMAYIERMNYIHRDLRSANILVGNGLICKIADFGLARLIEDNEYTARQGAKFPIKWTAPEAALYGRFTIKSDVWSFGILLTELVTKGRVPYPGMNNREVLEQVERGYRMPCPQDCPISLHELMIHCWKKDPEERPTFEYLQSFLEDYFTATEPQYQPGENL
Procedure: as §1, §2, §3, §4

LCK = biological target: T5, LCK (Homo sapiens, UniProt P06239); experiment: Desktop Profiler kinase panel, LCK; assay type: biochemical
T5 construct: purchased Caliper Life Sciences
T5 sequence (P06239 whole entry, species assumed): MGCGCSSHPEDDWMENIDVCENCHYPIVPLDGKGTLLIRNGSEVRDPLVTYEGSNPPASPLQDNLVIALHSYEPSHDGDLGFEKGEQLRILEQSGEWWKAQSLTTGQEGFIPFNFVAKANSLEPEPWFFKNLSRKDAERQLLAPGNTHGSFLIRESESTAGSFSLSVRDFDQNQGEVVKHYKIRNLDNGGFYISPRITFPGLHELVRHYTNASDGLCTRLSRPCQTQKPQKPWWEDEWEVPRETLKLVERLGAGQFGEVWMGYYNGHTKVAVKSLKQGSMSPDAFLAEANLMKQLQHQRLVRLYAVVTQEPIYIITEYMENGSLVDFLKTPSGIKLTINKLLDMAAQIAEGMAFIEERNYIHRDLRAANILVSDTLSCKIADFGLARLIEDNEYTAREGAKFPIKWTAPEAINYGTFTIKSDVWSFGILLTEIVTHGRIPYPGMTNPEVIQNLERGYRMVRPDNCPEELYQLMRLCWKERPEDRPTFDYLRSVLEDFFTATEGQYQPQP
Procedure: as §1, §2, §3, §4

LYN = biological target: T6, LYN (Homo sapiens, UniProt P07948); experiment: Desktop Profiler kinase panel, LYN; assay type: biochemical; conditions: for inhibition at 10 µM: 10 micromolar concentration of the compound, read-out: Percent Inhibition LYN
T6 construct: purchased Caliper Life Sciences
T6 sequence (P07948 whole entry, species assumed): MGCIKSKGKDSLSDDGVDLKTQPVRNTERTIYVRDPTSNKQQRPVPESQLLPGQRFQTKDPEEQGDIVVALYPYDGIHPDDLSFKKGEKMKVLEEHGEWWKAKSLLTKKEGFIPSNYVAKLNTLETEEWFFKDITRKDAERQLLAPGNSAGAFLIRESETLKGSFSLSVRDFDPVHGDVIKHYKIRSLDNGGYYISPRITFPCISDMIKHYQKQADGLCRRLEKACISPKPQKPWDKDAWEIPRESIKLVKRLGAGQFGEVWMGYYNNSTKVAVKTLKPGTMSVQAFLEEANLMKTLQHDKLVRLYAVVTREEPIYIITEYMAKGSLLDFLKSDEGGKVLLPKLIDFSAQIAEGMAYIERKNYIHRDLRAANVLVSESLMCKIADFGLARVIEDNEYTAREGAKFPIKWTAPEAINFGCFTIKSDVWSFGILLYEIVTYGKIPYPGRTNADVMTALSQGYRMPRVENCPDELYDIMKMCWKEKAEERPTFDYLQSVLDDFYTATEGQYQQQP
Procedure: as §1, §2, §3, §4

PKA = biological target: T7, PKA (Homo sapiens, UniProt P17612); experiment: Desktop Profiler kinase panel, PKA; assay type: biochemical; conditions: 10 micromolar concentration of the compound; read-out: Percent Inhibition PKA
T7 construct: purchased Caliper Life Sciences
Procedure: as §1, §2, §3, §4

SRC = biological target: T8, SRC (Homo sapiens, UniProt P12931); experiment: Desktop Profiler kinase panel, SRC; assay type: biochemical; conditions: for inhibition at 10 µM: 10 micromolar concentration of the compound, read-out: Percent Inhibition SRC
T8 construct: purchased Caliper Life Sciences
T8 sequence (P12931 whole entry, species assumed): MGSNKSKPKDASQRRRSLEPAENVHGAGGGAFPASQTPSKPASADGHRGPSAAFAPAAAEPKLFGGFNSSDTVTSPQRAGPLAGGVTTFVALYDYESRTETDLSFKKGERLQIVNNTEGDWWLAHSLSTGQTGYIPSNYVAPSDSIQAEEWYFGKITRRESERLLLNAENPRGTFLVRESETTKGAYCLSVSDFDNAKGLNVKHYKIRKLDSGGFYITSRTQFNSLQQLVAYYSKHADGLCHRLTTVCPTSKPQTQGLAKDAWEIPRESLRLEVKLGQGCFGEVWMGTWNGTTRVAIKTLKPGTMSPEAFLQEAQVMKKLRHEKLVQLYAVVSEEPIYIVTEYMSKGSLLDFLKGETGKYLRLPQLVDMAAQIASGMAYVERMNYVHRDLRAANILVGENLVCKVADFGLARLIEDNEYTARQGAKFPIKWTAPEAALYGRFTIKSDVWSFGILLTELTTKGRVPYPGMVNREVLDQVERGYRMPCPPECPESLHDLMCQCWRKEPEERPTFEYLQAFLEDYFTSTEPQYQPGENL
Procedure: as §1, §2, §3, §4

RSK1 = biological target: T9, RSK1 (Homo sapiens, UniProt Q15418); experiment: Desktop Profiler kinase panel, RSK1; assay type: biochemical; conditions: 10 micromolar concentration of the compound; read-out: Percent Inhibition RSK1
T9 construct: purchased Caliper Life Sciences
T9 sequence (Q15418 whole entry, species assumed): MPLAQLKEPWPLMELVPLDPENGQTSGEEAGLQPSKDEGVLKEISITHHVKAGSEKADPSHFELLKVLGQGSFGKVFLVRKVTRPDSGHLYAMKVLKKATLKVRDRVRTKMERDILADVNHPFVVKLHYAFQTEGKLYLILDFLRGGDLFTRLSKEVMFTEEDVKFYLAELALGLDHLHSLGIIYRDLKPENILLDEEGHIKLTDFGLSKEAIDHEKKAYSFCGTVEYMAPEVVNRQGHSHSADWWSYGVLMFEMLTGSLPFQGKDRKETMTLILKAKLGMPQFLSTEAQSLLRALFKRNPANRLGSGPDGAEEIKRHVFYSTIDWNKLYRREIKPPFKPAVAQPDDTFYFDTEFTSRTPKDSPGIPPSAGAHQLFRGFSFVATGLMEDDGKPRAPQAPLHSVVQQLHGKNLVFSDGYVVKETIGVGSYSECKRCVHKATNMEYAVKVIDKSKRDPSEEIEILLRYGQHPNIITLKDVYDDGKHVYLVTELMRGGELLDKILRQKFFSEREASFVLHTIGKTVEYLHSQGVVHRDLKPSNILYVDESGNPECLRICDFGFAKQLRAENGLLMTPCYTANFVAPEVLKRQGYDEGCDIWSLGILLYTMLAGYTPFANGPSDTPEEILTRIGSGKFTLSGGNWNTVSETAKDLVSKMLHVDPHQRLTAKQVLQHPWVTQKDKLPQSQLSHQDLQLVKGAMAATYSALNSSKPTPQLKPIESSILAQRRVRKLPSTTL
Procedure: as §1, §2, §3, §4

[1] = tested on: tumor cells of various origins / normal human cells; conditions: in vitro; cited from earlier work
human tumor xenograft = human tumor xenograft model; several intermittent dosing schedules; cited from earlier work
PKD2 = biological target: T10, PKD2 (Homo sapiens, UniProt Q9BZL6); experiment: Desktop Profiler kinase panel, PKD2; assay type: biochemical; conditions: 10 micromolar concentration of the compound; read-out: Percent Inhibition PKD2
T10 construct: purchased Caliper Life Sciences
T10 sequence (Q9BZL6 1-878): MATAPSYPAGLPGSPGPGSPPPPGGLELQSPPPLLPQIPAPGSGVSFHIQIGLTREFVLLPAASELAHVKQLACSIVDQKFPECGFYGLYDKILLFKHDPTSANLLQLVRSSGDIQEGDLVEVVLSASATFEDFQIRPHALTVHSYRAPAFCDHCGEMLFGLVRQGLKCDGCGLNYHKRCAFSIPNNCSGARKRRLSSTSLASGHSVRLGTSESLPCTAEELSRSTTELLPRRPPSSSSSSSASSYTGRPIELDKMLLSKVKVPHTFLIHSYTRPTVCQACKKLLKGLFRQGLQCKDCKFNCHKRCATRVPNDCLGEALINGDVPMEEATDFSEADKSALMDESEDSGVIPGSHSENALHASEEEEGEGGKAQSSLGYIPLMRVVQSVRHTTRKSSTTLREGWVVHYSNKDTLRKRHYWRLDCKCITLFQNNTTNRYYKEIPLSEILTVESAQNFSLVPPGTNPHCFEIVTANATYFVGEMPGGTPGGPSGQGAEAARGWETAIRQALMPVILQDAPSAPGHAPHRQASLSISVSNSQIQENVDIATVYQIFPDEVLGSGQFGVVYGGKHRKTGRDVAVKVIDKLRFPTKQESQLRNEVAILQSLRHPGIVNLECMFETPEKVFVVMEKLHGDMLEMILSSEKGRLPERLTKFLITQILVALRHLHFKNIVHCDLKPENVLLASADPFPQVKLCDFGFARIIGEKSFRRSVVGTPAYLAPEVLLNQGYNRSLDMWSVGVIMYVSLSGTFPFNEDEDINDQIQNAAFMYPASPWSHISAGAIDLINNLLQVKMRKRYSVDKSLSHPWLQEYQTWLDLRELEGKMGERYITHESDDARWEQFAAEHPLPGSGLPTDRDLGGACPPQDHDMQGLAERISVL
Procedure: as §1, §2, §3, §4

CK1d = biological target: T11, CK1d (Homo sapiens, UniProt P48730); experiment: Desktop Profiler kinase panel, CK1d; assay type: biochemical; conditions: 10 micromolar concentration of the compound; read-out: Percent Inhibition CK1d
T11 construct: purchased Caliper Life Sciences
T11 sequence (P48730 whole entry): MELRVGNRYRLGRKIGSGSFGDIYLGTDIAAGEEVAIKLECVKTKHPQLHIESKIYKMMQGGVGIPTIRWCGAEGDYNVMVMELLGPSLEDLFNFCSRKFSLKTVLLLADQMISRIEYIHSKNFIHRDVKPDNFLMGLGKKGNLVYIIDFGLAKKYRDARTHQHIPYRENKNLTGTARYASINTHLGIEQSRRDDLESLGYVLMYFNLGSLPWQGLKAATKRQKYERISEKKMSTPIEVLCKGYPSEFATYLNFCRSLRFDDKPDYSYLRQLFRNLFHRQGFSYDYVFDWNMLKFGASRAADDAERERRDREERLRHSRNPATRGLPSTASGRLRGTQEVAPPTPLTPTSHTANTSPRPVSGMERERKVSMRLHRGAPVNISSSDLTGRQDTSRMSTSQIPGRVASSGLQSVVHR
Procedure: as §1, §2, §3, §4

[2] = 1 micromolar concentration of the compound

T1 sequence (P00519 whole entry, species assumed): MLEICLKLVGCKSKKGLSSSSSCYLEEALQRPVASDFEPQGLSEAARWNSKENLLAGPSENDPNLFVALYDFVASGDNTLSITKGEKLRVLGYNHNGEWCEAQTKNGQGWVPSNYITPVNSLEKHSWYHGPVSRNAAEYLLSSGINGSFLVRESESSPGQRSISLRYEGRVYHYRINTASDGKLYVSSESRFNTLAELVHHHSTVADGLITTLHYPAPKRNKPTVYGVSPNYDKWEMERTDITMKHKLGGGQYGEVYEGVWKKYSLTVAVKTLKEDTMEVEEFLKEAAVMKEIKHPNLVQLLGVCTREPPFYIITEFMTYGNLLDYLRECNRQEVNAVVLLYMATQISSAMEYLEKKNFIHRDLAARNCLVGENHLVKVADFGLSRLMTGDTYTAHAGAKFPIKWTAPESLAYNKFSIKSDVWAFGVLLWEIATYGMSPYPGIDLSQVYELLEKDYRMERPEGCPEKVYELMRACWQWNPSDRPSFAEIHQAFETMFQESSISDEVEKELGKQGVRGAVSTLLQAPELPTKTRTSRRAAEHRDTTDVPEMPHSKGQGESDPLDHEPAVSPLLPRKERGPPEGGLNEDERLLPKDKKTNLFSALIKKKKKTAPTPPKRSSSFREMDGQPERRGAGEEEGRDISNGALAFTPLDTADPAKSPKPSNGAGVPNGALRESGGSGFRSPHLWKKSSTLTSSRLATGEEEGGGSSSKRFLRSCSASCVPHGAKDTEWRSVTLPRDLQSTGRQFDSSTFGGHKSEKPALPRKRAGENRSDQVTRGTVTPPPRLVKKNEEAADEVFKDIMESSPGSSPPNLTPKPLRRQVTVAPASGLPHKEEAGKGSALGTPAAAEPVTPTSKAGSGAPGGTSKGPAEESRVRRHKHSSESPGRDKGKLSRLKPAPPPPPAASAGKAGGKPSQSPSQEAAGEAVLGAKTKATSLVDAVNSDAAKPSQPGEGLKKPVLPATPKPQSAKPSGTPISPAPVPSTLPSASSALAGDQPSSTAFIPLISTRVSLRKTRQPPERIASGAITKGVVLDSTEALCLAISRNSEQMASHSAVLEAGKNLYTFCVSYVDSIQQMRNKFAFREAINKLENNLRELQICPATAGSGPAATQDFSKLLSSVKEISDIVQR

inhibition at 1 µM (ABL; [2]): 50 to 70%
inhibition at 10 µM (ABL): 70 to 90%
inhibition at 1 µM (AurA; [2]): 50 to 70%
inhibition at 10 µM (AurA): 70 to 90%
inhibition at 1 µM (CHK2; [2]): 50 to 70%
inhibition at 10 µM (CHK2; 10 micromolar concentration of the compound, read-out: Percent Inhibition CHK2): 70 to 90%
inhibition at 1 µM (FYN; [2]): 70 to 90%
inhibition at 1 µM (LCK; [2]): 50 to 70%
inhibition at 10 µM (LCK; 10 micromolar concentration of the compound, read-out: Percent Inhibition LCK): 70 to 90%
inhibition at 1 µM (LYN; [2]): 70 to 90%
inhibition at 10 µM (LYN): > 90%
inhibition at 10 µM (PKA): 50 to 70%
inhibition at 1 µM (SRC; [2]): 70 to 90%
inhibition at 10 µM (SRC): 70 to 90%
Structure (SMILES): COc1ccc(Nc2ccnc3[nH]c(=O)c4ccccc4c23)cc1 [Example 113, 1-(4-Methoxy-phenylamino)-5H-benzo[c][1,8]naphthyridin-6-one]

inhibition at 10 µM (ABL): 70 to 90%
inhibition at 10 µM (FYN): 70 to 90%
inhibition at 10 µM (LYN): 70 to 90%
inhibition at 10 µM (RSK1): 50 to 70%
inhibition at 10 µM (SRC): 70 to 90%
Structure (SMILES): Clc1nc2nccc(NCc3ccccc3)c2c2ccccc12 [Example 103, Benzyl-(6-chloro-benzo[c][1,8]naphthyridin-1-yl)-amine]

Second part, the compound before the results:

Structure (SMILES): Nc1nc(Nc2ccc(S(N)(=O)=O)cc2)nn1C(=O)c1c(F)cccc1F [JNJ-7706621]
less effective at inhibiting normal human cell growth than tumor cell proliferation [1]: about 10 fold
antitumor activity (human tumor xenograft): significant antitumor activity

Structure (SMILES): COc1cccc(CNc2ccnc3[nH]c(=O)c4ccccc4c23)c1 [Example 98, 1-(3-Methoxy-benzylamino)-5H-benzo[c][1,8]naphthyridin-6-one]
inhibition at 10 µM (AurA): 50 to 70%
inhibition at 10 µM (FYN): 50 to 70%
inhibition at 10 µM (LYN): 50 to 70%
inhibition at 10 µM (PKD2): 50 to 70%

Structure (SMILES): O=c1[nH]c2nccc(Cl)c2c2ccccc12 [Example 83, 1-Chloro-5H-benzo[c][1,8]naphthyridin-6-one]
inhibition at 10 µM (CK1d): 50 to 70%
inhibition at 10 µM (PKA): 50 to 70%
